Measurements: ChEMBL document CHEMBL1201862, “PubChem BioAssay data set” (2004)
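The compound was tested at five concentrations on cells cultured in 96-well plates, with a 48-hour exposure period. The concentration for 50% growth inhibition is given as GI50.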 Calls of active or inactive are those of the source. Cut-off read from the data, not from the text of the source: active = GI50 up to about 1.1 µM and inactive = higher.

Tests used:
Experiment in all cases: DTP human tumour cell line panel, 48 h
786-0 = test system: 786-0
A549 = test system: A549
CCRF-CEM = test system: CCRF-CEM
DU-145 = test system: DU-145
HCT-15 = test system: HCT-15
HOP-92 = test system: HOP-92
M14 = test system: M14
NCI-H23 = test system: NCI-H23
NCI-H460 = test system: NCI-H460
NCI/ADR-RES = test system: NCI/ADR-RES
RXF 393 = test system: RXF 393
SK-MEL-2 = test system: SK-MEL-2
SK-OV-3 = test system: SK-OV-3
SW-620 = test system: SW-620
MCF7 = test system: MCF7
Malme-3M = test system: Malme-3M
TK-10 = test system: TK-10
NCI-H522 = test system: NCI-H522

Structure (SMILES)	GI50 (786-0)	GI50 (A549)	GI50 (CCRF-CEM)	GI50 (DU-145)	GI50 (HCT-15) [µM]	GI50 (HOP-92)	GI50 (M14)	GI50 (NCI-H23)	GI50 (NCI-H460)	GI50 (NCI/ADR-RES)	GI50 (RXF 393)	GI50 (SK-MEL-2)	GI50 (SK-OV-3)	GI50 (SW-620)	GI50 (MCF7)	GI50 (Malme-3M)	GI50 (TK-10)	GI50 (NCI-H522)
O=C(N/N=C1/C(=O)c2c3ccccc3cc3cccc1c23)c1cccc(Cl)c1	56.6 µM (inactive)	> 100 µM (inactive)	67.6 µM (inactive)	70.3 µM (inactive)	> 100	> 100 µM (inactive)	> 100 µM (inactive)	> 100 µM (inactive)	79.4 µM (inactive)	> 100 µM (inactive)	> 100 µM (inactive)	> 100 µM (inactive)	> 100 µM (inactive)	> 100 µM (inactive)	–	–	–	–
CC(=O)c1c[nH]cc1CO	> 10 µM (inactive)	> 10 µM (inactive)	> 10 µM (inactive)	–	> 10	> 10 µM (inactive)	> 10 µM (inactive)	> 10 µM (inactive)	> 10 µM (inactive)	> 10 µM (inactive)	> 10 µM (inactive)	> 10 µM (inactive)	> 10 µM (inactive)	> 10 µM (inactive)	> 10 µM (inactive)	> 10 µM (inactive)	> 10 µM (inactive)	–
O=Cc1ccc2c(c1)CC1(Cc3ccccc3C1)C2	14.2 µM (inactive)	> 100 µM (inactive)	7.78 µM (inactive)	–	11.5	16.4 µM (inactive)	13.1 µM (inactive)	23.3 µM (inactive)	–	26.5 µM (inactive)	> 100 µM (inactive)	11.2 µM (inactive)	38.1 µM (inactive)	–	31 µM (inactive)	18.2 µM (inactive)	36.6 µM (inactive)	48.4 µM (inactive)
CC(C)CC(O)P(=O)(O)O.NC1CCCCC1 (stereo unspecified)	> 100 µM (inactive)	> 100 µM (inactive)	–	> 100 µM (inactive)	–	–	> 100 µM (inactive)	–	> 100 µM (inactive)	–	> 100 µM (inactive)	> 100 µM (inactive)	> 100 µM (inactive)	> 100 µM (inactive)	> 100 µM (inactive)	–	> 100 µM (inactive)	–
CC(=O)C(C(=O)c1ccc(C)cc1)[C@H]1OC(C)(C)O[C@H]1[C@H]1COC(C)(C)O1 (stereo partly specified)	2.88 µM (inactive)	11.2 µM (inactive)	–	–	2.99	7.98 µM (inactive)	6.9 µM (inactive)	2.07 µM (inactive)	7.05 µM (inactive)	4.54 µM (inactive)	2.69 µM (inactive)	2.92 µM (inactive)	10.3 µM (inactive)	1.84 µM (inactive)	1.97 µM (inactive)	6.92 µM (inactive)	7.73 µM (inactive)	2.34 µM (inactive)
COP(=O)(OC)C(O)CC(C)C (stereo unspecified)	> 100 µM (inactive)	> 100 µM (inactive)	–	> 100 µM (inactive)	–	–	> 100 µM (inactive)	–	> 100 µM (inactive)	–	> 100 µM (inactive)	> 100 µM (inactive)	> 100 µM (inactive)	> 100 µM (inactive)	> 100 µM (inactive)	–	> 100 µM (inactive)	–
COc1ccc(/C=c2/sc3n(c2=O)C(c2ccccc2)C2(O)CCCCC2N=3)cc1 (stereo unspecified)	> 12.5 µM (inactive)	> 12.5 µM (inactive)	> 12.5 µM (inactive)	–	–	–	> 12.5 µM (inactive)	> 12.5 µM (inactive)	> 12.5 µM (inactive)	–	–	> 12.5 µM (inactive)	–	> 12.5 µM (inactive)	> 12.5 µM (inactive)	> 12.5 µM (inactive)	> 12.5 µM (inactive)	> 12.5 µM (inactive)
C/C(=N\NC(=O)c1ccncc1)c1cccc(F)c1	> 10 µM (inactive)	> 10 µM (inactive)	> 10 µM (inactive)	–	> 10	> 10 µM (inactive)	> 10 µM (inactive)	> 10 µM (inactive)	> 10 µM (inactive)	> 10 µM (inactive)	> 10 µM (inactive)	> 10 µM (inactive)	> 10 µM (inactive)	> 10 µM (inactive)	> 10 µM (inactive)	> 10 µM (inactive)	> 10 µM (inactive)	–
